A short description of the series: Human HepG2 cell viability assay in 384 well format. Also on record: dose 125 nL, time 70.5 hour; concentration not given beside the values. The settings on record: HepG2 cells, read-out: Inhibition. Type of series: toxicity, cell-based.
`CC(O)CNCc1ccc(OCc2ccc3c(c2)OCCO3)cc1` (stereo not drawn): the cytotoxicity at 70.5 h worked out at 19.4%.
For `CC(=O)N1CCN(Cc2cccc3c2sc2ccccc23)CC(O)C1` (stereo not drawn) the value was -5.85%; for `c1ccc(CCN2CCCC(Cn3ccnc3)C2)cc1` (stereo not drawn), -10.4%; for `CC(C(=O)NC1CCCC1)S(=O)(=O)Cc1noc(C(C)(C)C)n1` (stereo not drawn), 7.9%.
For `Cc1csc(C2(NC(=O)NCCN3CCOCC3)CCC2)n1` the value was -8.41%; for `CC(C)N(C)S(=O)(=O)NCc1cccnc1N(C)C`, -4.22%; for `CCC(NC(=O)C1CCN(S(C)(=O)=O)CC1)c1ccc(OC)cc1` (stereo not drawn), -4.59%.
Then `Cc1cc(CN2C[C@@H]3COC[C@H](C(=O)N4CCCCO4)[C@@H]3C2)oc1C`, with -11%.
For `CC(C)CC(=O)N1CCCC1c1ccsc1` (stereo not drawn), the cytotoxicity at 70.5 h is -10.6%.
For `Cc1cccc(C(=O)N2CCN(S(C)(=O)=O)[C@@H](C)C2)c1C` the value was -0.781%; for `O=C(CN1CCCCCC1=O)NCC1CCN(c2ccccc2)C1` (stereo not drawn), -5.56%.
For the compound `c1ccc2oc(CN3CCCCC3Cn3cncn3)nc2c1` (stereo not drawn), the cytotoxicity at 70.5 h was -4.46%.
For `CCc1nnsc1C(=O)NCc1nnc2n1CCC2`, the cytotoxicity at 70.5 h is -2.79%.
For `COCCNc1ccccc1CNC(=O)NCc1cnc(C)s1` the value was -0.0167%.
For `CCCOc1ccc(Cl)cc1CNc1ncnc2oc(C)nc12` the value was -6.3%; for `Cc1cc(C)c(CNC(=O)N2CCN(c3ccncc3)CC2)c(=O)[nH]1`, -9.77%.
Then `Cc1cccc(-n2nc(CC(C)C)nc2CCn2ccc(=O)[nH]c2=O)c1`, with -2.09%; and `Cc1ccc(F)c(S(=O)(=O)NCc2cccc(N3CCOC3=O)c2)c1`, with -4.03%; and `O=C(N[C@H]1CN(c2nc(CO)cs2)C[C@@H]1C1CC1)C1CCCCC1`, with -6.79%.
In the case of `COCCNC(=O)[C@H]1CN(Cc2nccs2)C[C@H]2OCC[C@@H]12`, the cytotoxicity at 70.5 h is -2.35%.
Then `CCCn1cc(CN2CCCC2c2cccc(-n3ccnc3)n2)cn1` (stereo not drawn), with -7.28%.
For `Cc1nsc(N2CCCN(c3nc(C4CC4)ns3)CC2)n1` the value was 1.36%; for `Fc1ccccc1-c1noc2c1CN(CCN1CCOCC1)CC2`, 7.36%; for `COC(=O)Cc1cccc(NC(=O)Cc2cc(C)[nH]n2)c1`, 21.3%.
Then `CN1C(=O)CC2(CCN(Cc3cnn(C)c3)CC2)c2ccccc21`, with -2.77%.
In the case of `Cc1ccccc1-c1cncc(C2CCN(Cc3cnn(C)c3)CC2)n1`, the cytotoxicity at 70.5 h is -9.46%.
Then `N#Cc1ccccc1OCCN1CCC(C(=O)N2CCOCC2)CC1`, with -9.69%; and `COC(=O)C(NC(=O)c1ccc(C)cc1C)c1cccnc1` (stereo not drawn), with -7.04%.
On to `c1ccc(-n2ccc(CN3CCCC(Cn4cncn4)C3)n2)cc1` (stereo not drawn), for which the cytotoxicity at 70.5 h is 0.226%.
Then `CCN1C(=O)C2(CCN(CCN(C)C)CC2)c2ccccc21`, with 19.9%; and `Cc1cnn(C2CCCN(C(=O)c3c(C)oc4nc[nH]c(=O)c34)C2)c1` (stereo not drawn), with -9.75%.
For `CCS(=O)(=O)N1CCc2c(CN3CCOCC3)cncc2C1` the value was -4.84%; for `CCS(=O)(=O)N1CCN(C(C)c2ncc(-c3ccccc3)o2)CC1` (stereo not drawn), -19.2%.
For `COCC1c2c(cnn2C)CCN1Cc1cccc(C)c1` (stereo not drawn) the value was -1.18%.
On to `O=C(N1CCCC1)N1CCC(Nc2ccncn2)CC1`, for which the cytotoxicity at 70.5 h is -3.32%.
For `CN1CC(Oc2ccc(Cl)cc2)=NC(SCC(=O)Nc2ccccc2)=N1` the value was 7.43%; for `COc1ccc(C(=O)C2CCCN(Cc3ccncc3)C2)c(OC)c1` (stereo not drawn), -9.3%.
Consider `CC(=O)N1CCN(C(=O)CN2CCN(c3cccc(C)c3)CC2)CC1`, for which the cytotoxicity at 70.5 h is -6.8%.
Then `Cc1ccc(C(=O)NC2CCOc3ccccc32)cc1S(C)(=O)=O` (stereo not drawn), with 27.5%; and `COCC(C)(O)CNC(=O)c1cc(-c2cc(OC)ccc2OC)nn1C` (stereo not drawn), with 6.52%.
Then `Cc1ccc(NC2CCN(C(=O)c3ccc4c(c3)CCC4)CC2)nn1`, with -0.715%; and `CCN(Cc1cccc(Cl)c1)Cn1nc(C)c2c(C)onc2c1=O`, with 25.1%.
Consider `COc1ccc(C2(c3nc(-c4cnn(C)c4)no3)CCOCC2)cc1`, for which the cytotoxicity at 70.5 h was -3.48%.
For `COc1ccccc1C1(CNCc2ccc(C#N)cc2)CCOCC1` the value was -6.31%; for `CCS(=O)(=O)N1CCC(c2nc(C)c(C)c(N3CCCC3)n2)CC1`, 2.09%; for `C1CCCN(CC2CCCN(Cc3noc(C4CC4)n3)C2)CC1` (stereo not drawn), 0.15%.
For `c1coc(CN2C[C@@H]3CCCO[C@@H]3[C@H](N3CCCC3)C2)c1` the value was -8.85%.
For the compound `CCCS(=O)(=O)N1CCC(NC(=O)c2cc(CC)c(C)s2)CC1`, the cytotoxicity at 70.5 h is -0.636%.
For `COCCCC1(CO)CCCN(CCc2ccccc2)C1` (stereo not drawn) the value was -1.1%; for `CCCn1ncc(C(=O)N2CCN(C3CCSCC3)CC2)c1C`, 2.68%.
For `c1cnnc(N2CCCC(NCc3ccc(-n4ccnc4)cc3)C2)c1` (stereo not drawn) the value was -10.5%; for `Cc1cc(C)n(CC2CCCN2C(=O)c2cnn(C)c2C2CC2)n1` (stereo not drawn), -11.8%.
Then `C[C@@H]1C(=O)NC[C@H]2CN(Cc3ccc4c(c3)OCO4)C[C@H]21`, with -10.2%; and `COc1c(CNC2CCN(c3ccccn3)CC2)c(C(C)C)nn1C`, with 5.04%; and `CCc1nccn1CC1CCCN1S(=O)(=O)N1CCCOCC1` (stereo not drawn), with 23.7%.
As to `O=C(N[C@@H]1CC[C@@H](n2ccnc2)[C@@H]1O)c1cc2c(s1)CCC2`, the cytotoxicity at 70.5 h amounted to 1.51%.
Then `CCNC(=O)[C@@H]1C[C@@H](N)CN1Cc1ccc(Sc2ccc(C)cc2)o1`, with -4.77%; and `Cc1nc(C)c(C(=O)N2CCCN(Cc3cnn(C)c3)CC2)s1`, with -3.11%.
Then `CC(C)c1nn(C)c(N(C)C)c1CNC1CCN(C2CC2)CC1`, with -2.94%; and `CCC(C)N(C)S(=O)(=O)c1ccc(CCNC(C)=O)s1` (stereo not drawn), with -7%; and `Cc1ccc2c(c1)c(CNC(=O)C1CCCN(CC(N)=O)C1)nn2C` (stereo not drawn), with -10.2%.
As to `CC(=O)N1CCN(C(=O)Nc2ccc(Cl)cc2)[C@H]2CS(=O)(=O)C[C@H]21`, the cytotoxicity at 70.5 h was -2.86%.
For `Cc1nc(NC(=O)NCc2nc3cccc(C)c3n2C)oc1C` the value was 13.5%; for `CCS(=O)(=O)N1CCN(C)c2ncccc2C1`, -7.16%; for `Cc1cccc(NC(=O)C2(n3cnnn3)CCCCC2)n1`, -26.9%.
Then `O=C(c1cc(=O)[nH]c(=O)[nH]1)N1CCCCC1c1nc2cc(F)ccc2[nH]1` (stereo not drawn), with -6.77%; and `CC(NC(=O)N1CCN(c2nccs2)CC1)c1nncn1C` (stereo not drawn), with -7.23%; and `CC(NC(=O)OC(C)(C)C)c1nnc(S(=O)(=O)Cc2ccc(Cl)cc2)o1` (stereo not drawn), with 4.02%.
Then `O=C(Cn1nc(Br)nc1Br)N1CCOCC1`, with 27.3%; and `CNC(=O)C1CN(Cc2cc(C)on2)CCN(C2CCOCC2)C1` (stereo not drawn), with -7.77%; and `COC(=O)c1c(C(F)(F)F)cnc(OC)c1Cl`, with -11.7%.
For `Cc1ccc(-c2csc(N)c2C#N)cc1`, the cytotoxicity at 70.5 h is -16.3%.
For `CC(C)C(Sc1ccccc1)C(=O)N(C)Cc1nnc2n1CCC2` (stereo not drawn) the value was 25.6%.
For `NC(=O)NC(=O)CNC1(c2ccc(Cl)cc2)CCC1` the value was 2.08%; for `CC(C)(C)NC(=O)[C@@H]1Cc2ccccc2CN1Cc1cccs1`, 8.37%; for `Cn1cccc1C(=O)NCc1cnc2n1CCN(CC1CCOCC1)C2`, -3.17%.
Take `CC(NC(=O)c1ccsc1)c1ccc2c(c1)NC(=O)CO2` (stereo not drawn): the cytotoxicity at 70.5 h is -3.38%.
Then `CN(Cc1ccc(N(C)C)cc1)C(=O)c1cc2c([nH]c1=O)CCCC2=O`, with -4.35%; and `CC(NC(=O)NCc1cscn1)c1ccc(N2CCOCC2)cc1` (stereo not drawn), with -0.548%.
For `COC(=O)c1cc(C)nc(N2CCN(Cc3cc(C(C)C)no3)CC2)n1` the value was -12.8%; for `O=C(O)c1cccnc1CN1CCCCC1CCc1cccs1` (stereo not drawn), 12.3%; for `FC(F)(F)c1ccc(-c2cc(NC3CCNCC3)nc3[nH]ccc23)nc1`, -7.67%.
On to `CNc1nc(C2CCCN(C(=O)C(C)C)C2)nc2c1CN(C)CC2` (stereo not drawn), for which the cytotoxicity at 70.5 h is 9.57%.
Then `Cc1cnn(C2CCCN(C(=O)CCc3nccs3)C2)c1` (stereo not drawn), with 17.1%; and `Cc1ccc(CN2CC[C@H]3OCC[C@@]3(C(=O)N3CCCO3)C2)s1`, with -5.95%.
Then `Cc1ccc2c(n1)N(CCN(C)C)CCN(C(=O)c1cscn1)C2`, with -7.14%; and `Cc1noc(CN(CCc2cccs2)Cc2cccc(C#N)c2)n1`, with 0.848%.
Then `CCCS(=O)(=O)N1Cc2c(ncn2Cc2ccccc2)C[C@H]1C(=O)OC`, with -5.74%; and `Cn1cnnc1CC1CCN(Cc2nn(C)c3cccc(Cl)c23)CC1`, with 39.8%; and `Cc1nn(C)c(C)c1NC(=O)CNc1cc(C(F)(F)F)ccc1F`, with 25%.
Regarding `O=C(NCCC(=O)N1CCCC1)c1nn(-c2ccccc2F)cc1O`, the cytotoxicity at 70.5 h is 35.9%.
Then `NC(=O)CCSCc1ccc(Br)c(F)c1`, with -8.58%.
Then `CCOC1Sc2nnc(C)n2N=C1c1ccc(Br)cc1` (stereo not drawn), with -8.58%.
Then `CN(Cc1nncn1C)C(=O)c1cc(COc2ccccc2F)[nH]n1`, with -11.1%; and `CN(CCc1ccccc1)Cc1cc(C(=O)N2CCCC2(C)C)no1`, with 8.4%; and `CC(Nc1ccc(CN2CCCC2=O)cc1)c1ccc(C#N)cc1` (stereo not drawn), with -5.25%.
Consider `Cc1nc(N)sc1C(=O)N1CCCC(c2nccn2CCCN(C)C)C1` (stereo not drawn), for which the cytotoxicity at 70.5 h was -5.45%.
Then `Cc1ccn(-c2ccccc2NCc2scnc2C)n1`, with -1.69%.

Source of the values: ChEMBL document CHEMBL3507680, “University of Dundee, Gates Library screen for HepG2 cell viability”.
